Experimental data reported in patent publication US11213499B1, “Use of 3,3′-diselenodipropionic acid (DSePA) as an anticancer agent” (Secretary, Department of Atomic Energy, priority 2020, dated 2022).
Like-named read-outs stand apart in the source and are kept apart here.

Legend:
[1] = test system: WI-38 (Human normal lung fibroblast); assay: SRB/MTT assay, normal WI-38 cells; type: cell-based
Method: (§1) The anticancer effect of DSePA was evaluated using a panel of twenty-five human cancer cell lines of different tissue origins. Cells were treated with the increasing concentrations (0.1-100 μM) of DSePA for 48 h and viability was monitored by (Sulforhodamine B) SRB assay or MTT assay.
(§2) Cell culture and DSePA synthesis—DSePA was synthesized and characterized as described in our previous reports. Cell lines were cultured in growth medium (DMEM/RPMI) supplemented with 10% FBS, 100 U/ml penicillin and 100 μg/ml streptomycin at 37° C. in a humidified 5% CO2 environment. The stock solution of DSePA was prepared fresh in cell culture medium and diluted with the same to achieve the desired concentrations.
(§3) SRB/MTT Assay—To evaluate the anti-proliferative effect of DSePA, Cells (˜5×10^3) suspended in 100 μl of complete culture medium were seeded in each well of 96 well plates. The cells were allowed to attach and grow for 24 h, treated with desired concentrations of DSePA dissolved in culture medium for 48 h and then processed for SRB/MTT assay as described in literature. The percentage (%) cytotoxicity was calculated from the decrease in absorbance as compared to that of control group.

[2] = test system: Vero (Monkey kidney transformed epithelial cell line (normal)); assay: SRB/MTT assay, normal Vero cells; type: cell-based
Method: as §1, §2, §3

[3] = test system: A549 (Human non-small cell lung adenocarcinoma); assay: SRB/MTT anti-proliferative assay, A549; type: cell-based; conditions: 48 hours treatment, read-out: GI50 (Concentration of drug causing 50% inhibition of cell growth)
Method: as §1, §2, §3

[4] = rat; cited from earlier work

O=C(O)CC[Se][Se]CCC(=O)O [DSePA, 3,3′-diselenodipropionic acid]
GI50 ([1]; Homo sapiens, WI-38 normal cells, 48 hours treatment, SRB/MTT assay, read-out: GI50 (Concentration of drug causing 50% inhibition of cell growth)): > 100 µM | toxicity in normal cell types ([1]; WI-38, 0.1-100 μM, 48 h): did not show toxicity | GI50 ([2]; Primates, Vero normal cells, 48 hours treatment, SRB/MTT assay, read-out: GI50 (Concentration of drug causing 50% inhibition of cell growth)): > 100 µM | toxicity in normal cell types ([2]; Vero, 0.1-100 μM, 48 h): did not show toxicity | GI50 [3]: 10 µM | GI50 ([3]; Homo sapiens, A549, 48 h): ≤ 10 µM | estimated median oral Lethal dose (LD50) cut-off [4]: 25 mg/kg
